Experimental data taken from the supplement of paper PMC10307832.

Experiments:
Experiment in all cases: relative viability (nuclei count vs DMSO), 5 days (fraction); higher = more cells survive
A-427 = test system: A-427
Outline: (§1)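 Relative viability is defined as nuclei in treated wells over nuclei in vehicle wells. Duplicate plates were run and medians reported. Lung cancer cell lines in 1536-well plates were dosed by pin tool one day after seeding, with one drug or with a fixed anchor-drug dose plus five library-drug doses (not always all listed) in √10 steps, and nuclei were counted after 5 days.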

A549 = test system: A549
Outline: as §1

ABC-1 = test system: ABC-1
Outline: as §1

COR-L23 = test system: COR-L23
Outline: as §1

EKVX = test system: EKVX
Outline: as §1

LC-2-ad = test system: LC-2-ad
Outline: as §1

LCLC-97TM1 = test system: LCLC-97TM1
Outline: as §1

LK-2 = test system: LK-2
Outline: as §1

LXF-289 = test system: LXF-289
Outline: as §1

NCI-H1437 = test system: NCI-H1437
Outline: as §1

NCI-H1563 = test system: NCI-H1563
Outline: as §1

NCI-H1666 = test system: NCI-H1666
Outline: as §1

NCI-H1792 = test system: NCI-H1792
Outline: as §1

NCI-H1915 = test system: NCI-H1915
Outline: as §1

NCI-H2085 = test system: NCI-H2085
Outline: as §1

NCI-H2087 = test system: NCI-H2087
Outline: as §1

NCI-H2126 = test system: NCI-H2126
Outline: as §1

NCI-H3122 = test system: NCI-H3122
Outline: as §1

NCI-H322M = test system: NCI-H322M
Outline: as §1

NCI-H460 = test system: NCI-H460
Outline: as §1

NCI-H647 = test system: NCI-H647
Outline: as §1

NCI-H661 = test system: NCI-H661
Outline: as §1

NCI-H727 = test system: NCI-H727
Outline: as §1

PC-14 = test system: PC-14
Outline: as §1

Nc1cccc2c1CN(C1CCC(=O)NC1=O)C2=O (stereo not drawn) [Lenalidomide] + N=C(N)NC(=N)NCCc1ccccc1 [Phenformin] (partner 250 µM)
relative viability (A-427; first compound 0.253 µM): 0.317
relative viability (A-427; first compound 0.8 µM): 0.324
relative viability (A-427; first compound 2.53 µM): 0.421
relative viability (A-427; first compound 8 µM): 0.311
relative viability (A549; first compound 0.253 µM): 0.104
relative viability (A549; first compound 0.8 µM): 0.158
relative viability (A549; first compound 2.53 µM): 0.168
relative viability (A549; first compound 8 µM): 0.208
relative viability (ABC-1; first compound 0.253 µM): 0.209
relative viability (ABC-1; first compound 0.8 µM): 0.216
relative viability (ABC-1; first compound 2.53 µM): 0.27
relative viability (ABC-1; first compound 8 µM): 0.258
relative viability (COR-L23; first compound 0.253 µM): 0.412
relative viability (COR-L23; first compound 0.8 µM): 0.412
relative viability (COR-L23; first compound 2.53 µM): 0.508
relative viability (COR-L23; first compound 8 µM): 0.45
relative viability (EKVX; first compound 0.253 µM): 0.23
relative viability (EKVX; first compound 0.8 µM): 0.211
relative viability (EKVX; first compound 2.53 µM): 0.241
relative viability (EKVX; first compound 8 µM): 0.196
relative viability (LC-2-ad; first compound 0.253 µM): 0.567
relative viability (LC-2-ad; first compound 2.53 µM): 0.64
relative viability (LC-2-ad; first compound 8 µM): 0.585
relative viability (LCLC-97TM1; first compound 0.253 µM): 0.378
relative viability (LCLC-97TM1; first compound 0.8 µM): 0.409
relative viability (LCLC-97TM1; first compound 2.53 µM): 0.485
relative viability (LCLC-97TM1; first compound 8 µM): 0.365
relative viability (LK-2; first compound 0.253 µM): 0.575
relative viability (LK-2; first compound 0.8 µM): 0.262
relative viability (LK-2; first compound 2.53 µM): 0.656
relative viability (LK-2; first compound 8 µM): 0.229
relative viability (LXF-289; first compound 0.253 µM): 0.536
relative viability (LXF-289; first compound 0.8 µM): 0.547
relative viability (LXF-289; first compound 2.53 µM): 0.565
relative viability (LXF-289; first compound 8 µM): 0.58
relative viability (NCI-H1437; first compound 0.253 µM): 0.276
relative viability (NCI-H1437; first compound 0.8 µM): 0.248
relative viability (NCI-H1437; first compound 2.53 µM): 0.839
relative viability (NCI-H1437; first compound 8 µM): 0.363
relative viability (NCI-H1563; first compound 0.253 µM): 0.667
relative viability (NCI-H1563; first compound 0.8 µM): 0.774
relative viability (NCI-H1563; first compound 2.53 µM): 0.697
relative viability (NCI-H1563; first compound 8 µM): 0.613
relative viability (NCI-H1666; first compound 0.253 µM): 0.331
relative viability (NCI-H1666; first compound 2.53 µM): 0.635
relative viability (NCI-H1666; first compound 8 µM): 0.527
relative viability (NCI-H1792; first compound 0.253 µM): 0.369
relative viability (NCI-H1792; first compound 2.53 µM): 0.574
relative viability (NCI-H1792; first compound 8 µM): 0.189
relative viability (NCI-H1915; first compound 0.253 µM): 0.358
relative viability (NCI-H1915; first compound 0.8 µM): 0.373
relative viability (NCI-H1915; first compound 2.53 µM): 0.401
relative viability (NCI-H1915; first compound 8 µM): 0.406
relative viability (NCI-H2085; first compound 0.253 µM): 0.604
relative viability (NCI-H2085; first compound 0.8 µM): 0.653
relative viability (NCI-H2085; first compound 2.53 µM): 0.827
relative viability (NCI-H2085; first compound 8 µM): 0.562
relative viability (NCI-H2087; first compound 0.253 µM): 0.416
relative viability (NCI-H2087; first compound 0.8 µM): 0.372
relative viability (NCI-H2087; first compound 2.53 µM): 0.505
relative viability (NCI-H2087; first compound 8 µM): 0.477
relative viability (NCI-H2126; first compound 0.253 µM): 0.552
relative viability (NCI-H2126; first compound 0.8 µM): 0.517
relative viability (NCI-H2126; first compound 2.53 µM): 0.531
relative viability (NCI-H2126; first compound 8 µM): 0.458
relative viability (NCI-H3122; first compound 0.253 µM): 0.379
relative viability (NCI-H3122; first compound 0.8 µM): 0.387
relative viability (NCI-H3122; first compound 2.53 µM): 0.395
relative viability (NCI-H3122; first compound 8 µM): 0.457
relative viability (NCI-H322M; first compound 0.253 µM): 0.801
relative viability (NCI-H322M; first compound 0.8 µM): 0.894
relative viability (NCI-H322M; first compound 2.53 µM): 0.863
relative viability (NCI-H322M; first compound 8 µM): 0.846
relative viability (NCI-H460; first compound 0.253 µM): 0.462
relative viability (NCI-H460; first compound 0.8 µM): 0.522
relative viability (NCI-H460; first compound 2.53 µM): 0.671
relative viability (NCI-H460; first compound 8 µM): 0.563
relative viability (NCI-H647; first compound 0.253 µM): 0.438
relative viability (NCI-H647; first compound 0.8 µM): 0.487
relative viability (NCI-H647; first compound 2.53 µM): 0.703
relative viability (NCI-H647; first compound 8 µM): 0.581
relative viability (NCI-H661; first compound 0.253 µM): 0.276
relative viability (NCI-H661; first compound 0.8 µM): 0.314
relative viability (NCI-H661; first compound 2.53 µM): 0.296
relative viability (NCI-H661; first compound 8 µM): 0.249
relative viability (NCI-H727; first compound 0.253 µM): 0.613
relative viability (NCI-H727; first compound 0.8 µM): 0.53
relative viability (NCI-H727; first compound 2.53 µM): 0.505
relative viability (NCI-H727; first compound 8 µM): 0.423
relative viability (PC-14; first compound 0.253 µM): 0.637
relative viability (PC-14; first compound 0.8 µM): 0.454
relative viability (PC-14; first compound 2.53 µM): 0.606
relative viability (PC-14; first compound 8 µM): 0.548
